Patent publication US9574188B2, “DNA restriction library tagging and analysis” (Harborgen Biotech LLC, priority 2014, dated 2017)

Test system: RKO cell line
Assay: Effect of methylation inhibitor on global methylation percentage (restriction library qPCR)
Format: cell-based
Procedure: The following steps are performed to create (including amplify) the restriction library, and measure methylation level: • 1. Add equal amount of a genomic DNA into two tubes containing the Msp I restriction library making system or Hpa II restriction library making system. • 2. Incubate the two tubes in PCR instrument. Repeat the following thermal cycle 100 times: 22 degree Celsius for 2 minutes, 16 degree 2 minutes, and 4 degree 2 minutes.
• Hpa II, Msp I and Cla I have more than 75% activity left at 22 degree. The generated restriction fragments and adaptors have the compatible CG-5′ overhang that contain phosphate at 5′ ends. At 4 degree Celsius, the compatible overhangs anneal together then T4 DNA ligases join the two annealed ends. • 3. […] Consequently the hetero-ligation is no longer recognizable by Cla I, Msp I or Hpa II. • 4. […] The proportion of hetero-ligation products becomes higher and higher, while the proportion of self-ligation products becomes lower and lower accompanied with repeating the cycle digestion-ligation reaction. • 6. All restriction sites in the Msp I restriction library making system disappear after hetero-ligation between restriction fragments and the adapters at reaction end, but not the methylated restriction sites (CCGG) in Hpa II restriction library making system. • 7. […]

Nc1ncn([C@H]2C[C@H](O)[C@@H](CO)O2)c(=O)n1 [DAC, 5-aza-2′ deoxycytidine]
methylation percentage of RKO cells after methylation inhibitor treatment (5 μM for 3 days prior to harvest, decreased from 96.7% (before treatment)): 35.6%
effect on the methylation level of RKO cell line (FIG. 9 legend): significantly affected
